Values belong to the compound of their own block, whether it stands above or below them. Activity calls are given as the source filed them. The calls are words filed in the database; no cut-off is given here.
Legend:
Mushroom tyrosinase [1] = target: T1, Mushroom tyrosinase (Agaricus bisporus, UniProt O42713+Q00024+C7FF04+C7FF05)
Description: Inhibition of diphenolase activity of mushroom tyrosinase using L-DOPA substrate

[2] = target: T2, Mushroom tyrosinase (Agaricus bisporus) (UniProt O42713+Q00024+C7FF04+C7FF05); assay: (§1) Inhibition of mushroom tyrosinase using L-DOPA as substrate measured for 15 mins by UV-vis spectrophotometry
Mushroom tyrosinase [3] = target: T1, Mushroom tyrosinase; assay: as §1
[4] = target: T2, Mushroom tyrosinase (Agaricus bisporus); assay: (§2) Inhibition of mushroom tyrosinase using DHICA as substrate measured for 15 mins by UV-vis spectrophotometry
Mushroom tyrosinase [5] = target: T1, Mushroom tyrosinase; assay: as §2
Mushroom tyrosinase [6] = target: T1, Mushroom tyrosinase; assay: Mixed type inhibition of mushroom tyrosinase using L-DOPA as substrate assessed as inhibitory constant measured for 15 mins by UV-vis spectrophotometry based Line-weaver Burk plot analysis
Mushroom tyrosinase [7] = target: T1, Mushroom tyrosinase; assay: Mixed type inhibition of mushroom tyrosinase using L-DOPA as substrate assessed as enzyme-substrate complex constant measured for 15 mins by UV-vis spectrophotometry based Line-weaver Burk plot analysis
B16-F10 [8] = assay: Cytotoxicity against mouse B16-F10 cells assessed as reduction in cell viability at 42.1 uM incubated for 6 hrs by MTT assay; type: cell-based; conditions: b16-f10, 6 h
M4Beu cell line = assay: Cytotoxicity against human M4Be cells assessed as reduction in cell viability at 42.1 uM incubated for 6 hrs by MTT assay; type: cell-based
B16-F10 [9] = assay: Inhibition of melanin production in mouse B16-F10 cells incubated for 48 hrs; type: functional, cell-based; conditions: dose 0-0.0421 µM
[10] = target: T3, Tyrosinase (Mus musculus) (UniProt P11344); assay: Inhibition of tyrosinase in mouse B16-F10 cells at 0.421 uM using L-DOPA as substrate incubated for 30 mins followed by substrate addition and measured after 40 mins; type: cell-based; conditions: time 70.0 min
T3 sequence (whole entry): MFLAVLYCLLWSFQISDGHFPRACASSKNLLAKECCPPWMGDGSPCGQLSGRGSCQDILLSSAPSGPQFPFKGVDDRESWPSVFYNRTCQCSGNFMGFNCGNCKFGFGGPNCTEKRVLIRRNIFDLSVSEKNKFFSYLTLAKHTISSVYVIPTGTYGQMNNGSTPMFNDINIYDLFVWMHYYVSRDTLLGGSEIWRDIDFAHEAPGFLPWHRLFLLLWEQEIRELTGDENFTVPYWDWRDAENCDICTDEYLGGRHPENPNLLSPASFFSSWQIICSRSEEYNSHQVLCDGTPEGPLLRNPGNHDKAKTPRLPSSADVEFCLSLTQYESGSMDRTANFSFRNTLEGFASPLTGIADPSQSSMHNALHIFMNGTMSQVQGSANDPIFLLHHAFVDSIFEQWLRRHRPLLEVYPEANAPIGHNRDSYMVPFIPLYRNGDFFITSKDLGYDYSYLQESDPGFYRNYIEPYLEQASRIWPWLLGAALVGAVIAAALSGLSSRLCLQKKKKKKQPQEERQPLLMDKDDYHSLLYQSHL

B16-F10 [11] = assay: Reduction in alpha-MSH-induced tyrosinase expression in mouse B16-F10 cells at 0.041 uM incubated for 48 hrs by Western blot analysis; type: functional, cell-based
B16-F10 [12] = assay: Reduction in alpha-MSH-induced TRP-1 expression in mouse B16-F10 cells at 0.041 uM incubated for 48 hrs by Western blot analysis; type: functional, cell-based

SMILES: OC1COC(O)C(O)C1O (racemic)
IC50 (Mushroom tyrosinase [1]): 100 µM

SMILES: S=C1NCC(c2ccccc2)O1 (configuration not stated)
IC50 (Mushroom tyrosinase [1]): 42 µM

SMILES: O=C(O)/C=C/c1ccc(Cn2ccnc2)cc1 [OZAGREL]
IC50 (Mushroom tyrosinase [1]): 3450 µM

SMILES: N=C(N)NCCC[C@H](N)C(=O)NCCCNCCCNCCCCCNC(=O)[C@H](CC(N)=O)NC(=O)Cc1ccc(O)cc1O
inhibition [2]: Dose-dependent effect
IC50 (Mushroom tyrosinase [3]): 8.34 µM
inhibition [4]: Dose-dependent effect
IC50 (Mushroom tyrosinase [5]): 48.22 µM
Ki (Mushroom tyrosinase [6]): 10.77 µM
Ki (Mushroom tyrosinase [7]): 20.36 µM
Activity (B16-F10 [8]): Non-Toxic
Activity (M4Beu cell line): Non-Toxic
inhibition (B16-F10 [9]): Dose-dependent effect
inhibition [10]: Active
inhibition (B16-F10 [11]): inactive
inhibition (B16-F10 [12]): Active

The next lines start with the values.

IC50 (Mushroom tyrosinase [1]): 9000 µM
SMILES: CC1(C)S[C@@H]2[C@H](NC(=O)[C@H](N)c3ccc(O)cc3)C(=O)N2[C@H]1C(=O)O [AMOXICILLIN]

IC50 (Mushroom tyrosinase [1]): 18.61 µM
SMILES: CC1(C)C=Cc2c(cc3c(c2O)C(=O)CC(c2ccc(O)cc2O)O3)O1 (configuration not stated) [DALENIN]
